How the values were obtained:
[1] = tested on: rats; details: rat, in vivo
[2] = tested on: rats; details: rat; pretreatment quetiapine 10 mg/kg i.p.; heroin 0.032 mg/kg/infusion i.v., five lever presses per infusion; FIG. 2

## COc1ccc2c3c1O[C@H]1C(=O)CC[C@@]4(O)[C@@H](C2)N(C)CC[C@]314 [oxycodone]
[1]
  average tail flick latency: about 7.3 seconds
  median tail flick latency: ~5.8 s

## OCCOCCN1CCN(C2=Nc3ccccc3Sc3ccccc32)CC1 [quetiapine]
[2]
  self-administration (reinforcing effect) of heroin: decreased
